What was measured:
Type in all cases: cell-based
[1] = test system: Chinese hamster ovary (CHO) cell line; test: Cell viability, traditional perfusion vs. RaMP (trypan blue staining)
Method: The production cell line used for all experiments is a CHO (Chinese Hamster Ovary) cell-derived cell line transfected with the desired construct to produce a recombinant IgG1 protein. For all of the experiments, the cell line was grown in the RBM12.1 media under selective pressure (100 μg/ml Hygromycin B and 500 nM methotrexate). The cells were seeded in at a density of 4×10^5 to 1×10^6 cells per milliliter, depending on bioreactor size. pH was kept at 7.1±0.05 and temperature was kept at 37° C.±0.5. The perfusion rate for both traditional perfusion and the methods of the invention (RaMP) was 1.0 to 2.0 volumes/day. The cell retention devices used were the hollow fiber system and/or the cell settler system. […] The cell settler system (retention by gravity) seem to overcome this problem. Sodium butyrate was introduced into the bioreactor after the cells reached the desired cell density (around 20 million cells/ml). Once sodium butyrate was introduced into the perfusion system, the cells were kept at that sodium butyrate condition until the next higher dose. This gradual ramping of sodium butyrate concentration was continued until the desired final concentration of sodium butyrate was reached. Once the desired sodium butyrate concentration is reached, the cells are grown in media in media containing the desired sodium butyrate concentration for the rest of the production run.
The mammalian host cell line used is a Chinese hamster ovary (CHO) cell line. This cell line has been transfected with the light and heavy chains of a chimeric IgG1 monoclonal antibody. The cells were grown in RBM12.1 medium under selective pressure (100 μg/ml Hygromycin B and 500 nM methotrexate (MTX). The medium used for this example contained the components in Table 1. Additional factors such as 10 μg/ml recombinant human insulin and 0.1% F68 are also added to the medium.
During the growth period, the cultures were controlled at pH 7.1±0.05 by the use of CO2 gas (acid) and/or Na2CO3 (base). Temperature was controlled at 37°±0.5 Celsius. Oxygen level was maintained at about 100% air saturation. For the initial growth period, CO2 level was maintained at 5%. When the cell density reached […] cells/ml, CO2 gas to the culture was turned off. The osmolality of the culture was maintained between 325 to 400 mOsm with minimal osmolality drift.
In a typical production schedule, 5×10^5 to 1×10^6 cells were inoculated into the cell culture bioreactor. 1 to 1.5 volumes of media was perfused daily. Cell density and viability was monitored by pulling a sample from the bioreactor and counted using trypan blue staining for live/dead cells.
Ten days after inoculation, the production period was started with the gradual addition of sodium butyrate (Na butyrate) into the RaMP cultures. 1.5 volume of RBM12.1 medium with 1 mM Na butyrate was perfused into the biorector on day 1 of the production period. This concentration of Na butyrate was kept in the bioreactor using the RaMP method for the duration of the production period. For cells in the traditional perfusion method, RBM12.1 media without Na butyrate was perfused into the bioreactor at the same perfusion rate as used in the RaMP method. Cell viability was monitored daily.

[2] = test system: CHO (Chinese Hamster Ovary) cell-derived cell line; test: Cell viability and cell density, Example 5 (RaMP)
Method: Cells were seeded at 5×10^5 cells/ml and were allowed to grow in the bioreactor for 6 days before the first harvest of recombinant protein on day 7. Conditions for this growth period are similar to those described in Example 1 above. Cells were grown in RBM12.1 media with a perfusion rate of 1 to 1.5 v/day. 1 mM sodium butyrate (final concentration) was added to perfusion medium and was perfused into the bioreactor on day 8. […] 2 mM sodium butyrate (final concentration) was added to the perfusion media and was perfused into the bioreactor on day 11. Cell viability was monitored daily by pulling samples from the bioreactor and trypan blue live/dead staining. Over the production run, the cell density reached upwards of 4.5×10^7 cells/ml. Using the RaMP method, the cell viability remained above 85% viable cells even with the sustained concentration of 2 mM sodium butyrate in the media. The average daily recombinant protein production reached over 0.6 g/L/day.

[3] = test system: CHO (Chinese Hamster Ovary) cell-derived cell line; test: Average daily specific productivity: perfusion, fed-batch and RaMP; conditions: for Average Daily Specific Productivity: 10 day production run
From the text: Average daily specific productivity was compared using traditional perfusion, fed-batch with sodium butyrate induction and RaMP processes. The same production cell line was used for all three methods. Culture conditions for all three methods were similar to those described in Example 1 above. Cells were inoculated at 5×10^5 cells/ml and were allowed to grow to the desired concentration before induction with sodium butyrate. Fed-batch culture was induced with sodium butyrate as a bolus addition. Fed-batch specific productivity calculations were normalized and averaged for new protein production per day. Average daily specific productivity was calculated using production yields from a 10 day production run. Maximal sodium butyrate concentration was 2 mM for both fed-batch and RaMP processes. Average daily yields using the RaMP method was approximately 6 times more than fed-batch or traditional perfusion methods.

CCCC(=O)[O-].[Na+] [sodium butyrate]
% viable cells (RaMP) ([1]; 1 mM Na butyrate perfused from start of production period, day 10): 97% | % viable cells (RaMP) ([1]; 1 mM Na butyrate, day 11): 97.6% | % viable cells (RaMP) ([1]; 1 mM Na butyrate, day 12): 96.4% | % viable cells (RaMP) ([1]; 1 mM Na butyrate, day 13): 97.1% | % viable cells (RaMP) ([1]; 1 mM Na butyrate, day 14): 95.7% | % viable cells (RaMP) ([1]; 1 mM Na butyrate, day 15): 96.1% | % viable cells (RaMP) ([1]; 1 mM Na butyrate, day 16): 97.2% | % viable cells (RaMP) ([1]; 1 mM Na butyrate, day 17): 96.4% | % viable cells (RaMP) ([1]; 1 mM Na butyrate, day 18): 97% | % viable cells (RaMP) ([1]; 1 mM Na butyrate, day 19): 96.9% | % viable cells (RaMP) ([1]; 1 mM Na butyrate, day 20): 95.8% | cell viability ([1]; RaMP method, 1 mM Na butyrate, production period): sustained high cell viability | cell density ([2]; RaMP, 1 mM then 2 mM sodium butyrate, over the production run): > 4.5×10^7 cells/ml | cell viability ([2]; after 1 mM sodium butyrate perfused on day 8): ≥ 85% | cell viability ([2]; sustained concentration of 2 mM sodium butyrate in the media (from day 11)): above 85% | Average Daily Specific Productivity ([3]; Fed-batch, sodium butyrate bolus addition, maximal 2 mM): 0.10 g/L/day ± 0.03 | Average Daily Specific Productivity ([3]; RaMP, maximal sodium butyrate 2 mM): 0.64 g/L/day ± 0.07 | Average daily yields using RaMP relative to fed-batch or traditional perfusion methods ([3]; maximal sodium butyrate 2 mM): approximately 6 times

Source: US20080206819A1, “Intensified Perfusion Production Method” (priority 2006, published 2008)
